According to PMC11169557, “The Goldilocks paradigm: comparing classical machine learning, large language models, and few-shot learning for drug discovery applications” (Communications Chemistry, 2024):
Structures can show the parent of a compound that is named as a salt.

Biological target: MARK1 (Homo sapiens, UniProt Q9P0L2)
Assay: MARK1 inhibition, IC50 determination (dose-response) using Z'-LYTE assay
Type: biochemical
Details: for Active (Measured): hits of the initial screen followed up with dose-response curves, 1 = true MARK1 inhibitor; for MARK1 inhibitor (result in words): out of the 13 tested compounds; for IC50: Z'-LYTE assay, non-linear regression (3-parameters)

Sequence of MARK1 (Q9P0L2 whole entry): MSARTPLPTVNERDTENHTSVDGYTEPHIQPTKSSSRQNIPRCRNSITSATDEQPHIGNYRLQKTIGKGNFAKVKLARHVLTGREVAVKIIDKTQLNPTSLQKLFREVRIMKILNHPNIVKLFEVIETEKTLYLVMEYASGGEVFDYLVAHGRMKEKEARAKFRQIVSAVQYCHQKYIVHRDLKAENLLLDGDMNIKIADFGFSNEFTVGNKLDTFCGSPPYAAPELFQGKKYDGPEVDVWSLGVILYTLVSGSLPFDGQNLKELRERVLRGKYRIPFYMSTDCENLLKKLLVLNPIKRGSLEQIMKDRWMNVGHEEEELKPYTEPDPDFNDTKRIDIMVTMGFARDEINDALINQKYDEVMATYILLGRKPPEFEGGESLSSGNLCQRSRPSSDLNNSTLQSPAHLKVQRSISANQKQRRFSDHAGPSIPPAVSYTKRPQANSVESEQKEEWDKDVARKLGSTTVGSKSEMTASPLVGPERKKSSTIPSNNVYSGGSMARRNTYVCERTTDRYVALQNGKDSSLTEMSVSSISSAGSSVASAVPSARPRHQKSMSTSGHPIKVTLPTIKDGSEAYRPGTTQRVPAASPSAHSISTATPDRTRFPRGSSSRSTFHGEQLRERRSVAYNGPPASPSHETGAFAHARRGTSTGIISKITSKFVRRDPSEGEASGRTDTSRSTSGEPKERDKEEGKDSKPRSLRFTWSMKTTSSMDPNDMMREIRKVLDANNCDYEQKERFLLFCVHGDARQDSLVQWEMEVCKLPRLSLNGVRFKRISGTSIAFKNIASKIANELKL

Cc1cc(Nc2ncc(Cl)c(Nc3ccccc3S(=O)(=O)C(C)C)n2)c(OC(C)C)cc1C1CCNCC1 [Ceritinib]
Active (Measured): 0

C[C@@H](Oc1cc(-c2cnn(C3CCNCC3)c2)cnc1N)c1c(Cl)ccc(F)c1Cl [Crizotinib]
Active (Measured): 0

Cc1cc(C(C#N)c2ccc(Cl)cc2)c(Cl)cc1NC(=O)c1cc(I)cc(I)c1O (stereo not drawn) [Closantel]
Active (Measured): 0

CC(C)(C)NC[C@H](O)COc1cccc2c1CCCC2=O.Cl [Levobunolol (hydrochloride)]
Active (Measured): 0

C[C@@H]1CCN(C(=O)CC#N)C[C@@H]1N(C)c1ncnc2[nH]ccc12 [Tofacitinib citrate]
Active (Measured): 1
MARK1 inhibitor (result in words): true novel MARK1 active inhibitors

CCCCCCCCc1ccc(CCC(N)(CO)CO)cc1 [fingolimod]
Active (Measured): 0

O=C(Nc1c[nH]nc1-c1nc2ccc(CN3CCOCC3)cc2[nH]1)NC1CC1 [AT9283]
IC50: 0.185 µM
Active (Measured): 1
MARK1 inhibitor (result in words): true novel MARK1 active inhibitors

CN1CCN(c2ccc(Nc3ncc4cc(C#N)c(=O)n(C5CCCC5)c4n3)cc2)CC1 [ON123300]
IC50: 0.219 µM
Active (Measured): 1
MARK1 inhibitor (result in words): true novel MARK1 active inhibitors

COc1cc(Nc2c(C#N)cnc3cc(OCCCN4CCN(C)CC4)c(OC)cc23)c(Cl)cc1Cl [Bosutinib]
Active (Measured): 0

CCS(=O)(=O)N1CC(CC#N)(n2cc(-c3ncnc4[nH]ccc34)cn2)C1 [Baricitinib]
IC50: 0.166 µM
Active (Measured): 1
MARK1 inhibitor (result in words): true novel MARK1 active inhibitors

CC[C@@H]1CN(C(=O)NCC(F)(F)F)C[C@@H]1c1cnc2cnc3[nH]ccc3n12 [Upadacitinib]
IC50: 0.327 µM
Active (Measured): 1
MARK1 inhibitor (result in words): true novel MARK1 active inhibitors

COc1cc(O)c2c(c1)oc(=O)c1c3cc(O)c(O)cc3oc21 [Wedelolactone]
Active (Measured): 0
